According to patent publication US20220281848A1, “PYRAZOLE-SUBSTITUTED PYRROLIDINONES AS HERBICIDES” (FMC Corporation, priority 2019, published 2022):

Key:
Format in all cases: in vivo
corn (Zea mays, ZEAMX) = experiment: Test A pre-emergence, corn; settings: after 13 d
How it was run: (§1)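 Values are percent plant damage 13 d after a pre-emergence spray (15.625, 62.5 or 250 g/ha; acetone/water with 0.5% Tween 20) applied to pots one day post-sowing, under glasshouse conditions of 24/16° C. and twice-daily watering.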

[1] = system: giant foxtail (Setaria faberi, SETFA); experiment: Test A pre-emergence, giant foxtail; settings: after 13 d
How it was run: as §1

[2] = system: redroot pigweed (Amaranthus retroflexus, AMARE); experiment: Test A pre-emergence, redroot pigweed; settings: after 13 d
How it was run: as §1

[3] = system: velvetleaf (Abutilon theophrasti, ABUTH); experiment: Test A pre-emergence, velvetleaf; settings: after 13 d
How it was run: as §1

[4] = system: giant foxtail (Setaria faberi, SETFA); experiment: Test A post-emergence, giant foxtail; settings: after 13 d
How it was run: (§2)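 Foliar application to 8-day-old seedlings at 15.625, 62.5 or 250 g/ha; phytotoxicity scored 0–100 after 13 d.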

[5] = system: barnyardgrass (Echinochloa crus-galli, ECHCG); experiment: Test A post-emergence, barnyardgrass; settings: after 13 d
How it was run: as §2

[6] = system: redroot pigweed (Amaranthus retroflexus, AMARE); experiment: Test A post-emergence, redroot pigweed; settings: after 13 d
How it was run: as §2

[7] = system: velvetleaf (Abutilon theophrasti, ABUTH); experiment: Test A post-emergence, velvetleaf; settings: after 13 d
How it was run: as §2

maize = experiment: Test D pre-emergence, maize seed treated with a herbicide safener; settings: ZEAMX, preemergent, 20 DAA
How it was run: (§3)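 Seeds treated with herbicide safener; sown in soil; glasshouse, 16 h light, 65% humidity. Sprayed day 1 (pre) or ~day 12 (post). Spray in 0.2% v/v adjuvant. Scored 0–100 damage: 20 DAA pre, 15 d post.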

wheat = experiment: Test D pre-emergence, wheat seed treated with a herbicide safener; settings: 100=total damage, 0=no damage
How it was run: as §3

Structure (SMILES) | damage to plant (100=total damage; 0=no damage) ZEAMX (corn (Zea mays, ZEAMX); Pre-Emergence at 15.625 g/ha) | damage to plant (100=total damage; 0=no damage) ZEAMX (corn (Zea mays, ZEAMX); Pre-Emergence at 62.5 g/ha) | damage to plant (100=total damage; 0=no damage) ZEAMX (corn (Zea mays, ZEAMX); Pre-Emergence at 250 g/ha) | damage to plant (100=total damage; 0=no damage) SETFA ([1]; Pre-Emergence at 15.625 g/ha) | damage to plant (100=total damage; 0=no damage) SETFA ([1]; Pre-Emergence at 62.5 g/ha) | damage to plant (100=total damage; 0=no damage) SETFA ([1]; Pre-Emergence at 250 g/ha) | damage to plant (100=total damage; 0=no damage) AMARE ([2]; Pre-Emergence at 15.625 g/ha) | damage to plant (100=total damage; 0=no damage) AMARE ([2]; Pre-Emergence at 62.5 g/ha) | damage to plant (100=total damage; 0=no damage) AMARE ([2]; Pre-Emergence at 250 g/ha) | damage to plant (100=total damage; 0=no damage) ABUTH ([3]; Pre-Emergence at 15.625 g/ha) | damage to plant (100=total damage; 0=no damage) ABUTH ([3]; Pre-Emergence at 62.5 g/ha) | damage to plant (100=total damage; 0=no damage) ABUTH ([3]; Pre-Emergence at 250 g/ha) | damage to plant (100=total damage; 0=no damage) SETFA ([4]; Post-Emergence at 15.625 g/ha) | damage to plant (100=total damage; 0=no damage) SETFA ([4]; Post-Emergence at 62.5 g/ha) | damage to plant (100=total damage; 0=no damage) SETFA ([4]; Post-Emergence at 250 g/ha) | damage to plant (100=total damage; 0=no damage) ECHCG ([5]; Post-Emergence at 15.625 g/ha) | damage to plant (100=total damage; 0=no damage) ECHCG ([5]; Post-Emergence at 62.5 g/ha) | damage to plant (100=total damage; 0=no damage) ECHCG ([5]; Post-Emergence at 250 g/ha) | damage to plant (100=total damage; 0=no damage) AMARE ([6]; Post-Emergence at 15.625 g/ha) | damage to plant (100=total damage; 0=no damage) AMARE ([6]; Post-Emergence at 62.5 g/ha) | further results
CN1CC(c2cc(C(F)(F)F)n(C)n2)C(C(=O)Nc2ccccc2F)C1=O (racemic) [Compound 9] | 50 | 0 | 20 | 70 | 90 | 90 | 0 | 0 | 20 | 0 | 0 | 0 | 40 | 90 | 90 | 60 | 90 | 90 | 0 | 0 | damage to plant (100=total damage; 0=no damage) AMARE ([6]; Post-Emergence at 250 g/ha): 0; damage to plant (100=total damage; 0=no damage) ABUTH ([7]; Post-Emergence at 15.625 g/ha): 0; damage to plant (100=total damage; 0=no damage) ABUTH ([7]; Post-Emergence at 62.5 g/ha): 0; damage to plant (100=total damage; 0=no damage) ABUTH ([7]; Post-Emergence at 250 g/ha): 0; damage to plant (100=total damage to plant; 0=no damage to plant), ZEAMX (maize; rate 15): 0; damage to plant (100=total damage to plant; 0=no damage to plant), ZEAMX (maize; rate 30): 0; damage to plant (100=total damage to plant; 0=no damage to plant), ZEAMX (maize; rate 60): 0; damage to plant (100=total damage to plant; 0=no damage to plant), ZEAMX (maize; rate 130): 0; damage to plant (100=total damage to plant; 0=no damage to plant), ZEAMX (maize; rate 250): 0; damage to plant (100=total damage to plant; 0=no damage to plant), ZEAMX (maize; rate 500): 0; damage to plant, TRZAW (wheat; rate 15, 20 DAA): 0; damage to plant, TRZAW (wheat; rate 30, 20 DAA): 0; damage to plant, TRZAW (wheat; rate 60, 20 DAA): 0; damage to plant, TRZAW (wheat; rate 130, 20 DAA): 0; damage to plant, TRZAW (wheat; rate 250, 20 DAA): 0; damage to plant, TRZAW (wheat; rate 500, 20 DAA): 0
CN1CC(c2cc(C(F)(F)F)n(C)n2)C(C(=O)Nc2cccc(F)c2C(F)(F)F)C1=O (racemic) [Compound 19] | 0 | 0 | 20 | 80 | 90 | 90 | 0 | 0 | 0 | 0 | 0 | 0 | 70 | 70 | 80 | 60 | 70 | 80 | 0 | 0 | damage to plant (100=total damage; 0=no damage) AMARE ([6]; Post-Emergence at 250 g/ha): 30; damage to plant (100=total damage; 0=no damage) ABUTH ([7]; Post-Emergence at 15.625 g/ha): 0; damage to plant (100=total damage; 0=no damage) ABUTH ([7]; Post-Emergence at 62.5 g/ha): 0; damage to plant (100=total damage; 0=no damage) ABUTH ([7]; Post-Emergence at 250 g/ha): 0; damage to plant (100=total damage to plant; 0=no damage to plant), ZEAMX (maize; rate 15): 0; damage to plant (100=total damage to plant; 0=no damage to plant), ZEAMX (maize; rate 30): 0; damage to plant (100=total damage to plant; 0=no damage to plant), ZEAMX (maize; rate 60): 0; damage to plant (100=total damage to plant; 0=no damage to plant), ZEAMX (maize; rate 130): 0; damage to plant (100=total damage to plant; 0=no damage to plant), ZEAMX (maize; rate 250): 0; damage to plant (100=total damage to plant; 0=no damage to plant), ZEAMX (maize; rate 500): 0; damage to plant, TRZAW (wheat; rate 15, 20 DAA): 0; damage to plant, TRZAW (wheat; rate 30, 20 DAA): 0; damage to plant, TRZAW (wheat; rate 60, 20 DAA): 0; damage to plant, TRZAW (wheat; rate 130, 20 DAA): 0; damage to plant, TRZAW (wheat; rate 250, 20 DAA): 10; damage to plant, TRZAW (wheat; rate 500, 20 DAA): 60
CCn1nc([C@H]2CN(C)C(=O)[C@@H]2C(=O)Nc2cccc(F)c2F)c2c(F)cccc21 [Compound 7] | 20 | 30 | 90 | 70 | 80 | 90 | 0 | 0 | 0 | 0 | 0 | 0 | 60 | 70 | 80 | 60 | 80 | 80 | 0 | 0 | damage to plant (100=total damage; 0=no damage) AMARE ([6]; Post-Emergence at 250 g/ha): 0; damage to plant (100=total damage; 0=no damage) ABUTH ([7]; Post-Emergence at 15.625 g/ha): 0; damage to plant (100=total damage; 0=no damage) ABUTH ([7]; Post-Emergence at 62.5 g/ha): 0; damage to plant (100=total damage; 0=no damage) ABUTH ([7]; Post-Emergence at 250 g/ha): 0; damage to plant (100=total damage to plant; 0=no damage to plant), ZEAMX (maize; rate 15): 0; damage to plant (100=total damage to plant; 0=no damage to plant), ZEAMX (maize; rate 30): 0; damage to plant (100=total damage to plant; 0=no damage to plant), ZEAMX (maize; rate 60): 0; damage to plant (100=total damage to plant; 0=no damage to plant), ZEAMX (maize; rate 130): 0; damage to plant (100=total damage to plant; 0=no damage to plant), ZEAMX (maize; rate 250): 0; damage to plant (100=total damage to plant; 0=no damage to plant), ZEAMX (maize; rate 500): 10; damage to plant, TRZAW (wheat; rate 15, 20 DAA): 0; damage to plant, TRZAW (wheat; rate 30, 20 DAA): 0; damage to plant, TRZAW (wheat; rate 60, 20 DAA): 0; damage to plant, TRZAW (wheat; rate 130, 20 DAA): 0; damage to plant, TRZAW (wheat; rate 250, 20 DAA): 0; damage to plant, TRZAW (wheat; rate 500, 20 DAA): 0
